For one test, the system named is tissue factor. The settings on record: added into micro-emulsion; 0.5, 2 and 10 μmol/L; P<0.01; cited from earlier work.
The nature of test [1]: antioxidant activity testing (DPPH scavenging activity). It is filed as biochemical. The settings on record: corresponds to ppm VitE. An excerpt:
According to the present invention, the products of the Beta-carotene, lutein, lycopene, and of mixture of these three (in 0.5:4:4 optimal weight ratio) from the Allied Biochemical Industrial Co., Ltd were sent to “Food Industrial Research And Development Institute” (331 Shih-Pin Road, Hsinchu, 300 Taiwan) for antioxidant activity testing (DPPH scavenging activity).

The subject of a further test is macular degeneration. The settings on record: person ingesting 6 mg per day; cited from earlier work.
Test [2] has as its system thiobarbituric acid-reactive substances (TBARS), lipid peroxidation. The settings on record: single carotenoid; Control (no antioxidants) 100 ± 9; cited from earlier work.
In a further test the test system is myocardial infarction. The settings on record: contrast of the 10th and 90th percentiles of carotenoid level in adipose tissue; cited from earlier work.
The subject of a further test is cardiovascular disease. The settings on record: middle-aged or elderly; cited from earlier work.

Consider 3 compounds from US20100004330A1, “ANTI-OXIDATIVE CONTENT MATERIAL USED IN DRINK AND FOOD MANUFACTURING METHOD” (priority 2008, published 2010).

On to `CC1=C[C@H](O)CC(C)(C)[C@H]1/C=C/C(C)=C/C=C/C(C)=C/C=C/C=C(C)/C=C/C=C(C)/C=C/C1=C(C)C[C@@H](O)CC1(C)C` [Lutein], for which the tissue factor activity entry in the test with tissue factor was “suppress tissue factor activity”. Also, the Scavenging rate/g result in test [1] is “correspond to 7.69 × 10^2 ppm VitE”. For the same compound, the “lower risk for macular degeneration” value in the test on macular degeneration was 43%. Besides, the “TBARS (%) measured” value in test [2] is 77 ± 9%.
For `CC(C)=CCC/C(C)=C/C=C/C(C)=C/C=C/C(C)=C/C=C/C=C(C)/C=C/C=C(C)/C=C/C=C(\C)CCC=C(C)C` [Lycopene], the tissue factor activity result with tissue factor is “suppress tissue factor activity”. Moreover, in test [1], the Scavenging rate/g result is “correspond to 2.35 × 10^4 ppm VitE”. Also, in the test on myocardial infarction, the “odds ratio, myocardial infarction” value is 0.52. Besides, the “TBARS (%) measured” value in test [2] is recorded as 25 ± 10%.
On to `CC1=C(/C=C/C(C)=C/C=C/C(C)=C/C=C/C=C(C)/C=C/C=C(C)/C=C/C2=C(C)CCCC2(C)C)C(C)(C)CCC1` [β-carotene], for which, in the test on tissue factor, the tissue factor activity entry is given as “suppress tissue factor activity”. The “reduction of the risk of cardiovascular disease” value in the test on cardiovascular disease is listed as 45%. The Scavenging rate/g result in test [1] is “correspond to 7.08 × 10^3 ppm VitE”. In addition, in test [2], the “TBARS (%) measured” value is reported as 73 ± 9%.
